Ends that are not written are not given here.
Tests used:
NFκB [1] = experiment: EMSA of nuclear extracts, basal and LPS-induced NFκB translocation in RAW 264.7 mouse macrophages; type: cell-based; conditions: 30 minutes; for LPS-induced translocation of NFκB: LPS in combination with peptide (1 microgr/ml; 1 mg/ml); for Basal levels of NFκB in the nucleus: peptide without LPS
Method: RAW 264.7 mouse macrophages were cultured in DMEM, containing 10% or 2% FBS, penicillin, streptomycin and glutamine, at 37° C., 5% CO2. Cells were seeded in a 12-wells plate (3×10^6 cells/ml) in a total volume of 1 ml for two hours and then stimulated with LPS (E. coli 026:B6; Difco Laboratories, Detroit, Mich., USA) and/or gene-regulatory peptide (1 microgr/ml). After 30 minutes of incubation, plates were centrifuged and cells were collected for nuclear extracts. Nuclear extracts and EMSA were prepared according to Schreiber et al. Cells were collected in a tube and centrifuged for five minutes at 2000 rpm (rounds per minute) at 4° C. (Universal 30 RF, Hettich Zentrifuges). The pellet was washed with ice-cold Tris buffered saline (TBS pH 7.4) and resuspended in 400 μl of a hypotonic buffer A (10 mM HEPES pH 7.9, 10 mM KCl, 0.1 mM EDTA, 0.1 mM EGTA, 1 mM DTT, 0.5 mM PMSF and protease inhibitor cocktail (Complete™ Mini, Roche) and left on ice for 15 minutes. Twenty-five microliters 10% NP-40 was added and the sample was centrifuged (two minutes, 4000 rpm, 4° C.). The supernatant (cytoplasmic fraction) was collected and stored at −70° C. The pellet, which contains the nuclei, was washed with 50 μl buffer A and resuspended in 50 μl buffer C (20 mM HEPES pH 7.9, 400 mM NaCl, 1 mM EDTA, 1 mM EGTA, 1 mM DTT, 0.5 mM PMSF and protease inhibitor cocktail and 10% glycerol). The samples were left to shake at 4° C. for at least 60 minutes. Finally the samples were centrifuged and the supernatant (nucleic fraction) was stored at −70° C.
Bradford reagent (Sigma) was used to determine the final protein concentration in the extracts. For electrophoretic mobility shift assays an oligonucleotide representing NFκB-binding sequence (5′-AGCTCAGAGGGGGACTTTCCGAGAG-3′ (SEQ ID NO:28)) was synthesized. Hundred pico mol sense and antisense oligo were annealed and labeled with […] using T4 polynucleotide kinase according to the manufacturer's instructions (Promega, Madison, Wis.). Nuclear extract (5 to 7.5 μg) was incubated for 30 minutes with 75000 cpm probe in binding reaction mixture (20 microliters) containing 0.5 μg poly dI-dC (Amersham Pharmacia Biotech) and binding buffer BSB (25 mM MgCl2, 5 mM CaCl2, 5 mM DTT and 20% Ficoll) at room temperature. The DNA-protein complex was resolved from free oligonucleotide by electrophoresis in a 4 to 6% polyacrylamide gel (150 V, two to four hours). The gel was then dried and exposed to x-ray film. The transcription factor NFκB participates in the transcriptional regulation of a variety of genes. Nuclear protein extracts were prepared from either LPS (1 mg/ml), peptide (1 mg/ml) or LPS in combination with peptide-treated and untreated RAW264.7 cells. In order to determine whether the peptides modulate the translocation of NFκB into the nucleus, on these extracts EMSA was performed. Peptides are able to modulate the basal as well as LPS-induced levels of NFκB. In this experiment peptides that show the inhibition of LPS-induced translocation of NFκB are: […] (SEQ ID NO:21), […] (SEQ ID NO:22), LQG, LQGV (SEQ ID NO:1), […] (SEQ ID NO:23), VLPALP (SEQ ID NO:4), VVC, MTR and circular […] (SEQ ID NO: 17). Peptides that in this experiment promote LPS-induced translocation of NFκB are: VLPALPQ (SEQ ID NO:13), GVLPALP (SEQ ID NO:16) and MTRV (SEQ ID NO:20). Basal levels of NFκB in the nucleus was decreased by […] (SEQ ID NO:21), […] (SEQ ID NO:22), LQG and LQGV (SEQ ID NO:1) while basal levels of NFκB in the nucleus was increased by […] (SEQ ID NO:23), VLPALPQ (SEQ ID NO:13), GVLPALP (SEQ ID NO:16), VVC, MTRV (SEQ ID NO:20), MTR and […].

[2] = system: relapsing-remitting multiple sclerosis; conditions: treated group, trial of 251 patients; cited from earlier work
[3] = system: production of NO by a cell; experiment: Production of NO by a cell; type: cell-based
NFκB [4] = experiment: Other experiments on translocation of NFκB into nucleus (data not shown); type: cell-based

Substance | LPS-induced translocation of NFκB (NFκB [1]) | Basal levels of NFκB in the nucleus (NFκB [1]) | annual relapse rate reduced by [2] | production of NO by a cell [3] | modulation of translocation of NFκB into nucleus (NFκB [4])
GVLPALP | promote | increased | – | – | –
GVLPALPQ | inhibition | increased | – | – | –
Glatiramer acetate | – | – | 25% | – | –
LQG | inhibition | decreased | – | capable of reducing production of NO by a cell | –
LQGV | inhibition | decreased | – | capable of reducing production of NO by a cell | –
LQGVLPALPQ | inhibition | decreased | – | capable of reducing production of NO by a cell | –
LQGVLPALPQVVC | – | increased | – | – | –
MTR | inhibition | increased | – | – | –
MTRV | promote | increased | – | – | –
QVVC | – | – | – | – | modulation of translocation of NFκB into nucleus
VLPALP | inhibition | – | – | capable of reducing production of NO by a cell | –
VLPALPQ | promote | increased | – | – | –
VLPALPQVVC | inhibition | decreased | – | capable of reducing production of NO by a cell | –
VVC | inhibition | increased | – | – | –
circular LQGVLPALPQVVC (also: circular/cyclised, mode not given here) | inhibition | – | – | – | –

From patent publication US7517529B2, “Treatment of type I diabetes” (Biotempt B.V., priority 2003, dated 2009)
